What was measured:
[1] = system: Vasopressin V2; assay: Vasopressin V2 Antagonist Activity in Conscious Hydrated Rats; assay type: in vivo, rat; settings: 10 mg/kg orally, AVP 0.4 μg/kg i.p.; for Osmolality: urine
Description: Two to four rats are used for each compound. One hour later, arginine vasopressin (AVP, antidiuretic hormore, ADH) dissolved in peanut oil is administered at 0.4 μg/kg intraperitoneally. Two rats in each test would not receive arginine vasopressin but only the vehicle (peanut oil) to serve as water-loading control. Twenty minutes later each rat is given 30 mL/kg of deionized water orally by gavage and is placed individually in a metabolic cage equipped with a funnel and a graduated glass cylinder to collect urine for four hours. Urine volume is measured and osmolality analyzed by use of a Fiske One-Ten osmometer (Fiske Assoc., Norwood, Mass., USA). Urinary sodium, potassium, and chloride are analyzed by use of ion-specific electrodes in a Beckman E3 (Electrolyte 3) Analyzer. In the following results, […] and decreased osmolality relative to AVP-control indicates activity.

[2] = system: Vasopressin V1; assay: Vasopressin V1 Antagonist Activity in Conscious Rats (vasopressin vasopressor response); assay type: in vivo, rat; settings: 10 mg/kg iv; for Max % Inhibition: vasopressin vasopressor response
Description: Vasopressin V1 Antagonist Activity in Conscious Rats Conscious rats are restrained in a supine position with elastic tape. The area at the base of the tail is locally anesthetized by subcutaneous in filtration with 2% procaine (0.2 ml). Using aseptic technique the ventral caudal tail artery is isolated and a cannula made of PE 10 and 20 (heat-fused) tubing is passed into the lower abdominal aorta. The cannula is secured, heparinized (1000 i.u./cc), sealed and the wound closed with one or two stitches of Dexon 4-0. The caudal vein is also cannulated in the same manner for intravenous drug administration. The duration of the surgery is approximately 5 minutes. Additional local anesthesia (2% procaine or lidocaine) is provided as needed. The animals are placed in plastic restraining cages in an upright position. The cannula is attached to a Statham P23Db pressure transducer and pulsatile blood pressure is recorded. […] Percentage of antagonism by the compound is calculated using the pre-drug vasopressin vasopressor response as 100%. The results of this test on representative compounds of this invention in which the dose, the maximum % inhibition and the time in minutes, are shown in Table III.

[3] = target: T1, Rat Hepatic V1 Receptors (Rattus norvegicus, UniProt P30560); assay: Binding Assay to Rat Hepatic V1 Receptors; settings: rat hepatic V1 (no asterisk)
T1 construct: Rat liver plasma membranes expressing the vasopressin V1 receptor subtypes; from tissue; host or cells: rat liver plasma membranes (sucrose density gradient)
T1 sequence (P30560 whole entry): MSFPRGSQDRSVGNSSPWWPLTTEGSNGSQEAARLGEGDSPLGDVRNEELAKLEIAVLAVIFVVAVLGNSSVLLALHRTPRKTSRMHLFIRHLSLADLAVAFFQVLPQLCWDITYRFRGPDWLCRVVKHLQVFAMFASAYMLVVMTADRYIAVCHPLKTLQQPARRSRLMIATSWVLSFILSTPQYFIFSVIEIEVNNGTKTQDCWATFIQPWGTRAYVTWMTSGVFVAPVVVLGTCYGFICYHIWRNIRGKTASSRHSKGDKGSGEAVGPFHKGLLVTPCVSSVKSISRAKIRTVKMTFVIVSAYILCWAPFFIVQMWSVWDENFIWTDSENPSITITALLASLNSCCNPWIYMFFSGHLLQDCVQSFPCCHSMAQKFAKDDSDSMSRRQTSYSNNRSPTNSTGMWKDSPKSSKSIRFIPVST
Description: Binding Assay to Rat Hepatic V1 Receptors
Rat liver plasma membranes expressing the vasopressin V1 receptor subtypes are isolated by sucrose density gradient according to the method described by Lesko et al., (1973). These membranes are quickly suspended in 50.0 mM Tris.HCl buffer, pH 7.4, containing 0.2% bovine serum albumin (BSA) and 0.1 mM phenylmethylsulfonylfluoride (PMSF) and kept frozen at -70° C. until used in subsequent binding experiments. […]
For test compounds, these are solubilized in 50% dimethylsulfoxide (DMSO) and added in 20.0 μl volume to a final incubation volume of 200 μl. […] The radioactivity trapped on the filter disk by the ligand-receptor complex is assessed by liquid scintillation counting in a Packard LS Counter, with an efficiency of 65% for tritium. The data are analyzed for IC50 values by the LUNDON-2 program for competition (LUNDON SOFTWARE, Ohio).

[4] = target: T2, Rat Kidney Medullary V2 Receptors (Rattus norvegicus, UniProt Q00788); assay: Binding Assay to Rat Kidney Medullary V2 Receptors; settings: rat kidney medullary V2 (no asterisk)
T2 construct: Medullary tissues from rat kidneys are dissected out; from tissue; host or cells: rat kidney medulla membranes
T2 sequence (Q00788 whole entry): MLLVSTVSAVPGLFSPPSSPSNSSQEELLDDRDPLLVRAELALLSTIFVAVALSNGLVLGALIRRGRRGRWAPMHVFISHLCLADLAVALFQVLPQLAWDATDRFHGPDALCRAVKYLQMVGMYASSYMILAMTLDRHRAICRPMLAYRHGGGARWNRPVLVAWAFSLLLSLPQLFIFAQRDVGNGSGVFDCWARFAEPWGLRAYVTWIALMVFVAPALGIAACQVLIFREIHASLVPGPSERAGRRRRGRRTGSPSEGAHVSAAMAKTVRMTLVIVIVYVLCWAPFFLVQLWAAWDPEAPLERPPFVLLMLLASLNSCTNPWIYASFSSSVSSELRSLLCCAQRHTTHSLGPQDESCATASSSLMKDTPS
Description: Binding Assay to Rat Kidney Medullary V2 Receptors
Medullary tissues from rat kidneys are dissected out, cut into small pieces and soaked in a […] sodium chloride solution containing 1.0 mM EDTA with many changes of the liquid phase, until the solution is clear of blood. The tissue is homogenized in a 0.25M sucrose solution containing 1.0 mM EDTA and 0.1 mM PMSF using a Potter-Elvehjem homogenizer with a teflon pestle. The homogenate is filtered through several layers (4 layers) of cheese cloth. The filtrate is rehomogenized using a dounce homogenizer, with a tight fitting pestle. The final homogenate is centrifuged at 1500× g for 15 min. […] The protein content is determined by the Lowry's method (Lowry et al., J. Biol. Chem., 1953). […]
For binding experiments, the following is added in μl volume to wells of a 96 well format of a microtiter plate: 100.0 μl of 100.0 mM Tris.HCl buffer containing 0.2% heat inactivated BSA, 10.0 mM MgCl2 and a mixture of protease inhibitors: leupeptin, 1.0 mg %; aprotinin, 1.0 mg %; 1,10-phenanthroline, 2.0 mg %; trypsin inhibitor, 10.0 mg % and 0.1 mM PMSF, 20.0 μl of [^3 H] […] Non-specific binding is assessed in the presence of 1.0 μM of unlabeled ligand, added in 20 μl volume. […] The data are analyzed for IC50 values by the LUNDON-2 program for competition (LUNDON SOFTWARE, Ohio).

| IC50 [3] [nM] | IC50 [4] [nM] | Compound | Urine Volume [1] [ml/4 hrs] | Osmolality [1] [mOsm/kg] | Time (of maximum % inhibition) [2] [min] | Max % Inhibition [2] [%] |
| --- | --- | --- | --- | --- | --- | --- |
| – | – | O=C(c1ccc(-c2cc(F)cc(F)c2)cc1)N1Cc2cccn2Cc2ccccc21 [Example 3, 10,11-Dihydro-10-[4-(3,5-difluorophenyl)benzoyl]-5H-pyrrolo[2,1-c][1,4]benzodiazepine] | 5.9 | 1205 | 30 | 92 |
| – | – | O=C(c1ccc(-c2ccccc2)cc1)N1Cc2ccnn2Cc2ccccc21 [Example 7, 5-([1,1'-Biphenyl]-4-ylcarbonyl)-5,10-dihydro-4H-pyrazolo[5,1-c][1,4]benzodiazepine] | 7.5 | 1005 | 30 | 90 |
| 670 | 3300 | O=C(c1ccc(-c2ccccc2C(F)(F)F)cc1)N1Cc2cccn2Cc2ccccc21 [Example 8] | 8 | 887 | – | – |
| 400 | 1200 | O=C(c1ccc(-c2ccccn2)cc1)N1Cc2cccn2Cc2ccccc21 [Example 9, 10,11-Dihydro-10-[4-(2-pyridinyl)benzoyl]-5H-pyrrolo[2,1-c][1,4]benzodiazepine] | 8.3 | 857 | 30 | 70 |
| – | – | O=C(c1ccc(-c2ccccc2)cc1)N1Cc2cccn2Cc2ccccc21 [Example 19, 10-([1,1'-Biphenyl]-4-ylcarbonyl)-10,11-dihydro-5H-pyrrolo[2,1-c][1,4]benzodiazepine] | 3.5 | 1598 | 30 | 60 |

From patent publication US5521173A, “Tricyclic benzazepine vasopressin antagonists” (American Home Products Corporation, priority 1995, dated 1996)
